In the first experiment the target is ATR kinase (full-length ATR) (Homo sapiens (Human), UniProt Q13535). As to the kind of experiment: ATR inhibition assay (radioactive-phosphate incorporation). It counts as biochemical.
ATR kinase (full-length ATR), sequence (Q13535 whole entry): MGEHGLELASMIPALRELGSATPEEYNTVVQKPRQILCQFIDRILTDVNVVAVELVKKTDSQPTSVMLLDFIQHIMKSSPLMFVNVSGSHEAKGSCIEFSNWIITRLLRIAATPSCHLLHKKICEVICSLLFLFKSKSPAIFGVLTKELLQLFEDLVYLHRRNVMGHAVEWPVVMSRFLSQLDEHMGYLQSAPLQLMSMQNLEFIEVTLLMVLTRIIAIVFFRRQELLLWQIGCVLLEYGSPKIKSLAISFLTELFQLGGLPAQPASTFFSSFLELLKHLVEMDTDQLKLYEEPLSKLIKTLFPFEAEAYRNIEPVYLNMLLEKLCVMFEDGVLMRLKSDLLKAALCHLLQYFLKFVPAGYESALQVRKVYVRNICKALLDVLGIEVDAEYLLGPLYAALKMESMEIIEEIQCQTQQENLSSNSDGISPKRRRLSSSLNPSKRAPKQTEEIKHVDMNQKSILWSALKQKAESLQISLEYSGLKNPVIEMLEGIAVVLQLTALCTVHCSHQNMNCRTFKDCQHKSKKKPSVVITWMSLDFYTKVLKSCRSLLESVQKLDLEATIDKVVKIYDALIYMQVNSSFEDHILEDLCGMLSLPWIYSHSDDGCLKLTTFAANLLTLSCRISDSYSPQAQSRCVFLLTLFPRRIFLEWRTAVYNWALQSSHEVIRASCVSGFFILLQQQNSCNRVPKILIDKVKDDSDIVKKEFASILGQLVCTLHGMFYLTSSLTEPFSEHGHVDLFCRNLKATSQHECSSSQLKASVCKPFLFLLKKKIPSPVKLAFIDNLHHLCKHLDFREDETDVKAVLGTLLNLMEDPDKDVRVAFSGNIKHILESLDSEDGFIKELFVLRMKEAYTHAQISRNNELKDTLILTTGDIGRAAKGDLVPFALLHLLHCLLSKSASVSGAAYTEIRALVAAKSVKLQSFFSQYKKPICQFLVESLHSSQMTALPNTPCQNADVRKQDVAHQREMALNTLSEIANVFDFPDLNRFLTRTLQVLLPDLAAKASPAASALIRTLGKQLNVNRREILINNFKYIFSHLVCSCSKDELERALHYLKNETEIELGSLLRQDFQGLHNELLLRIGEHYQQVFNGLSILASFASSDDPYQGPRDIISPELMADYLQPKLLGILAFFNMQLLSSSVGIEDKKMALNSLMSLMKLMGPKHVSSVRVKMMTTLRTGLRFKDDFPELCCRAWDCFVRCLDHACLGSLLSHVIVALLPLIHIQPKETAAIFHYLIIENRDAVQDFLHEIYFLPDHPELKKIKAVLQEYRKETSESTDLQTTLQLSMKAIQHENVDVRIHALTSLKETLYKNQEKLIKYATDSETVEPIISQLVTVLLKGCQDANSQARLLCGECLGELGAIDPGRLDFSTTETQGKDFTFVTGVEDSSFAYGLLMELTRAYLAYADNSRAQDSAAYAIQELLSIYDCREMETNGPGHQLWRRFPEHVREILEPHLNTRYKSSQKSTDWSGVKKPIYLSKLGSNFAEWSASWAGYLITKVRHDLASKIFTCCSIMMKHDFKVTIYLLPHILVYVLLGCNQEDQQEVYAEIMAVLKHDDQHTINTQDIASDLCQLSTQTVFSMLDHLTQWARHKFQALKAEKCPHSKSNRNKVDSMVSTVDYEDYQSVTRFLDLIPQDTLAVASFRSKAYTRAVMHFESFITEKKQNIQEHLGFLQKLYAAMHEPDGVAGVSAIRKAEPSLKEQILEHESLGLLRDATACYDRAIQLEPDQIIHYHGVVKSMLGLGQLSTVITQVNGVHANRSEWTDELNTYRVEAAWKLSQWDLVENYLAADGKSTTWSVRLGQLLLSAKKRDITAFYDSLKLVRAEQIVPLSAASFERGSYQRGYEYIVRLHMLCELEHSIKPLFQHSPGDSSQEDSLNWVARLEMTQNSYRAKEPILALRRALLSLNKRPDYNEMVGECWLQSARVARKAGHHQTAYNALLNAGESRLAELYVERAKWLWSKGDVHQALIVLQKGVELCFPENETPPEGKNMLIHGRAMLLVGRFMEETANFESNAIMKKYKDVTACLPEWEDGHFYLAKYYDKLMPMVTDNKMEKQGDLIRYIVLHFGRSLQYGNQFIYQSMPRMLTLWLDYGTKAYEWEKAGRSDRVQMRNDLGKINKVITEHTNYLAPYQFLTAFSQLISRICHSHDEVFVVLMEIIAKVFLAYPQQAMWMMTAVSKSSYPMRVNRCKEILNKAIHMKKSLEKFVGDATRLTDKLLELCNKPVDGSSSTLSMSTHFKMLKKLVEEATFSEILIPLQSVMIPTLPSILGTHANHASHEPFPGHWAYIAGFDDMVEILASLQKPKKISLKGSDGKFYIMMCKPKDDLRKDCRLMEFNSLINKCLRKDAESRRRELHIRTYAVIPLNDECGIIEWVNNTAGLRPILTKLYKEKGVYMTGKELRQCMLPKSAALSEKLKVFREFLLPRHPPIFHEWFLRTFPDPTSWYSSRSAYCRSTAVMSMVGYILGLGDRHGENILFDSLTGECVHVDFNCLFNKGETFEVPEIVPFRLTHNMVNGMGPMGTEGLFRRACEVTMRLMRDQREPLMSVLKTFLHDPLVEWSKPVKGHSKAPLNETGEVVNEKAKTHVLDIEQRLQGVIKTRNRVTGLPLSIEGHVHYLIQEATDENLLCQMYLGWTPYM
Settings: not given
The method in brief: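 Radiometric 33P incorporation by 5 nM full-length ATR into 800 μM target peptide with 10 μM [γ-33P]ATP, in 50 mM Tris/HCl pH 7.5, 10 mM MgCl2, 1 mM DTT, 7% DMSO, 25° C. Compound pre-incubated 10 minutes; reaction stopped after 24 hours, captured on phosphocellulose. Ki(app) from non-linear regression of initial rates.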
`CN1CCN(C(=O)C2CCCN(c3c(F)cncc3NC(=O)c3c(N)nn4cc(F)cnc34)C2)CC1` (stereo not drawn) [I-N-289, 2-amino-6-fluoro-N-(5-fluoro-4-(3-(4-methylpiperazine-1-carbonyl)piperidin-1-yl)pyridin-3-yl)pyrazolo[1,5-a]pyrimidine-3-carboxamide]: the Ki was 1000 to 5000 nM. Take `CN1CCC(c2ccncc2NC(=O)c2c(N)nn3cc(F)cnc23)CC1` [I-C-1, 2-amino-6-fluoro-N-(4-(1-methylpiperidin-4-yl)pyridin-3-yl)pyrazolo[1,5-a]pyrimidine-3-carboxamide]: the Ki lay within 1000 to 5000 nM. As for `CN1CCN(c2c(C#N)cncc2NC(=O)c2c(N)nn3cc(F)cnc23)CC1` [I-N-113, 2-amino-N-(5-cyano-4-(4-methylpiperazin-1-yl)pyridin-3-yl)-6-fluoropyrazolo[1,5-a]pyrimidine-3-carboxamide], the Ki fell in the range of 1000 to 5000 nM.

In the case of `CN(C)C1CCN(c2ccncc2NC(=O)c2c(N)nn3cc(Cl)cnc23)CC1` [I-N-37, 2-amino-6-chloro-N-(4-(4-(dimethylamino)piperidin-1-yl)pyridin-3-yl)pyrazolo[1,5-a]pyrimidine-3-carboxamide], the Ki fell in the range of 1000 to 5000 nM.

Staying with this experiment, now noted: Ki(app), 5 nM full-length ATR, 10 μM ATP, 25° C.
Consider `Nc1nn2cc(F)cnc2c1C(=O)Nc1cnccc1Oc1cccnc1` [I-O-7, 2-amino-6-fluoro-N-(4-(pyridin-3-yloxy)pyridin-3-yl)pyrazolo[1,5-a]pyrimidine-3-carboxamide], for which the Ki lay within 10 to 1000 nM. Take `Nc1nn2cc(Cl)cnc2c1C(=O)Nc1cnccc1OC1CCOCC1` [I-O-61, 2-amino-6-chloro-N-(4-((tetrahydro-2H-pyran-4-yl)oxy)pyridin-3-yl)pyrazolo[1,5-a]pyrimidine-3-carboxamide]: the Ki fell in the range of 10 to 1000 nM.

As to `CN1CCOC2(CCN(c3c(F)cncc3NC(=O)c3c(N)nn4cc(F)cnc34)CC2)C1` [I-N-272, 2-amino-6-fluoro-N-(5-fluoro-4-(4-methyl-1-oxa-4,9-diazaspiro[5.5]undecan-9-yl)pyridin-3-yl)pyrazolo[1,5-a]pyrimidine-3-carboxamide], the Ki was in the range of 10 to 1000 nM.

For `Cc1cncc(NC(=O)c2c(N)nn3cc(F)cnc23)c1N1CCN(C2COC2)CC1` [I-N-16, 2-amino-6-fluoro-N-(5-methyl-4-(4-(oxetan-3-yl)piperazin-1-yl)pyridin-3-yl)pyrazolo[1,5-a]pyrimidine-3-carboxamide], the Ki lay in the range of 10 to 1000 nM. In the case of `CS(=O)(=O)C1CCCN(c2ccncc2NC(=O)c2c(N)nn3cc(F)cnc23)C1` (stereo not drawn) [I-N-221, 2-amino-6-fluoro-N-(4-(3-(methylsulfonyl)piperidin-1-yl)pyridin-3-yl)pyrazolo[1,5-a]pyrimidine-3-carboxamide], the Ki is 10 to 1000 nM.

Regarding `Cn1ccc(-c2ccncc2NC(=O)c2c(N)nn3cc(F)cnc23)n1` [I-C-68, 2-amino-6-fluoro-N-(4-(1-methyl-1H-pyrazol-3-yl)pyridin-3-yl)pyrazolo[1,5-a]pyrimidine-3-carboxamide], the Ki fell in the range of 10 to 1000 nM. Take `N#CCc1cnc2c(C(=O)Nc3cnccc3OC3CCOCC3)c(N)nn2c1` [I-O-30, 2-amino-6-(cyanomethyl)-N-(4-((tetrahydro-2H-pyran-4-yl)oxy)pyridin-3-yl)pyrazolo[1,5-a]pyrimidine-3-carboxamide]: the Ki was below 10 nM.

As to `Nc1nn2cc(F)cnc2c1C(=O)Nc1cnccc1N1CCN2CCC[C@H]2C1` [I-N-21, (S)-2-amino-6-fluoro-N-(4-(hexahydropyrrolo[1,2-a]pyrazin-2(1H)-yl)pyridin-3-yl)pyrazolo[1,5-a]pyrimidine-3-carboxamide], the Ki lay within 10 to 1000 nM. In the case of `CC1(C)CN(c2ccncc2NC(=O)c2c(N)nn3cc(F)cnc23)CCS1(=O)=O` [I-N-252, 2-amino-N-(4-(2,2-dimethyl-1,1-dioxidothiomorpholino)pyridin-3-yl)-6-fluoropyrazolo[1,5-a]pyrimidine-3-carboxamide], the Ki fell in the range of 10 to 1000 nM. As for `CN1CC(NC(=O)C2CCN(c3c(F)cncc3NC(=O)c3c(N)nn4cc(F)cnc34)CC2)C1` [I-G-23, 2-amino-6-fluoro-N-(5-fluoro-4-(4-((1-methylazetidin-3-yl)carbamoyl)piperidin-1-yl)pyridin-3-yl)pyrazolo[1,5-a]pyrimidine-3-carboxamide], the Ki lay within 10 to 1000 nM. As for `CN1CCC(C(=O)N2CCN(c3c(F)cncc3NC(=O)c3c(N)nn4cc(F)cnc34)CC2)CC1` [I-N-128, 2-amino-6-fluoro-N-(5-fluoro-4-(4-(1-methylpiperidine-4-carbonyl)piperazin-1-yl)pyridin-3-yl)pyrazolo[1,5-a]pyrimidine-3-carboxamide], the Ki lay within 10 to 1000 nM. Consider `CN1CC2CC1CN2C(=O)C1CCN(c2c(F)cncc2NC(=O)c2c(N)nn3cc(F)cnc23)CC1` (stereo not drawn) [I-G-53, 2-amino-6-fluoro-N-(5-fluoro-4-(4-(5-methyl-2,5-diazabicyclo[2.2.1]heptane-2-carbonyl)piperidin-1-yl)pyridin-3-yl)pyrazolo[1,5-a]pyrimidine-3-carboxamide], for which the Ki was in the range of 10 to 1000 nM. As for `COc1cncc(NC(=O)c2c(N)nn3cc(F)cnc23)c1-c1cncn1C` [I-C-81, 2-amino-6-fluoro-N-(5-methoxy-4-(1-methyl-1H-imidazol-5-yl)pyridin-3-yl)pyrazolo[1,5-a]pyrimidine-3-carboxamide], the Ki was below 10 nM. Regarding `Nc1nn2cc(F)cnc2c1C(=O)Nc1cnccc1N1CCN(CC(F)(F)F)CC1` [I-N-20, 2-amino-6-fluoro-N-(4-(4-(2,2,2-trifluoroethyl)piperazin-1-yl)pyridin-3-yl)pyrazolo[1,5-a]pyrimidine-3-carboxamide], the Ki was in the range of 10 to 1000 nM.

`COc1ccncc1NC(=O)c1c(N)nn2cc(C(C)C#N)cnc12` (stereo not drawn) [I-O-21, 2-amino-6-(1-cyanoethyl)-N-(4-methoxypyridin-3-yl)pyrazolo[1,5-a]pyrimidine-3-carboxamide]: the Ki was 10 to 1000 nM. On the same count and under the same terms, the value for `Nc1nn2cc(F)cnc2c1C(=O)Nc1cnccc1N1CCN2[C@@H](CCS2(=O)=O)C1` [I-N-247, (S)-2-amino-N-(4-(1,1-dioxidotetrahydro-2H-isothiazolo[2,3-a]pyrazin-5(3H)-yl)pyridin-3-yl)-6-fluoropyrazolo[1,5-a]pyrimidine-3-carboxamide] was 10 to 1000 nM; that for `Nc1nn2cc(F)cnc2c1C(=O)Nc1cnccc1N1CCN2C(=O)CCCC2C1` (stereo not drawn) [I-N-244, 2-amino-6-fluoro-N-(4-(6-oxohexahydro-1H-pyrido[1,2-a]pyrazin-2(6H)-yl)pyridin-3-yl)pyrazolo[1,5-a]pyrimidine-3-carboxamide] was 10 to 1000 nM; that for `CN1CCN(CC2CCN(c3c(F)cncc3NC(=O)c3c(N)nn4cc(F)cnc34)CC2)C(=O)C1` [I-N-193, 2-amino-6-fluoro-N-(5-fluoro-4-(4-((4-methyl-2-oxopiperazin-1-yl)methyl)piperidin-1-yl)pyridin-3-yl)pyrazolo[1,5-a]pyrimidine-3-carboxamide] was 10 to 1000 nM.

Regarding `N#CCc1cnc2c(C(=O)Nc3cnccc3OC3CN4CCC3CC4)c(N)nn2c1` (racemic) [I-O-22, (R,S)-2-amino-6-(cyanomethyl)-N-(4-(quinuclidin-3-yloxy)pyridin-3-yl)pyrazolo[1,5-a]pyrimidine-3-carboxamide], the Ki was in the range of 10 to 1000 nM. For `Nc1nn2cc(F)cnc2c1C(=O)Nc1cnccc1-c1ccc(C(=O)N2CCN(C3COC3)CC2)nc1` [I-C-52, 2-amino-6-fluoro-N-(6-(4-(oxetan-3-yl)piperazine-1-carbonyl)-[3,4′-bipyridin]-3′-yl)pyrazolo[1,5-a]pyrimidine-3-carboxamide], the Ki fell in the range of 10 to 1000 nM.

Values taken from US10392391B2 (Vertex Pharmaceuticals Incorporated, priority 2012, dated 2019).
